Here are results for six compounds from patent US5319096A, “(1H-indol-1-yl)-2-(amino) acetamides and related (1H-indol-1-yl)-(aminoalkyl)amides, pharmaceutical composition and use” (Hoechst-Roussel Pharmaceuticals Inc., priority 1992, dated 1994).

Structures can show the parent of a compound that is named as a salt.

Assay [1] relates to global ischemia in the gerbil. Particulars: cited from earlier work.
Assay [2] deals with direct infusion of NMDA or quinolinate into the rat striatum. Particulars: cited from earlier work.
Assay [3] deals with striatal neurons, infusion of quinolinate. Particulars: 100 mg/kg, i.p., 1 hour after infusion of quinolinate; cited from earlier work.
In assay [4] the test system is NMDA-induced Striatal Lesion. Put plainly: Protection Against NMDA-induced Striatal Lesion (% control enzyme activity, lesioned vs contralateral striatum). It counts as in vivo, Male Sprague Dawley rats. Conditions: ip, NMDA 150 nanomoles, 7 days post surgery; for % Control Enzyme Activity ChAT: choline acetyltransferase; for % Control Enzyme Activity GAD: glutamic acid decarboxylase. An excerpt: Glutamate, aspartate and other excitatory amino acids (EAA) are putative neurotransmitters at vertebrate CNS excitatory synapses. […] The neurotoxicity of EAA has led to the implication of their involvement in human neurodegenerative disorders such as Alzheimer's Disease. Subacute or chronic overexposure to endogenous neurotoxin may lead to the slow degeneration of neurons (Olney, J., Excitotoxic Amino Acids and Neuropsychiatric Disorders. Annu. Rev. Pharmacol. Toxicol. 30:47-71, 1990). […] The striatal lesion paradigm can be used to assess the neuroprotective potential of novel compounds.
Testing of the compounds was carried out as follows: Male Sprague Dawley rats (Charles River) are housed under standard laboratory conditions as outlined in the "Guide for the Care and Use of Laboratory Animals" (National Institutes of Health Publications No. 85-23, Revised 1985). Food and water were provided ad libitum; lights were on from 0600-1800 h. Sterile techniques were used during surgery.
Rats (250-320 g) were anesthetized with chloral hydrate (400 mg/kg i.p., 10 ml/kg) and mounted in a David Kopf® stereotaxic instrument. An incision was made in the scalp and the skull surface was exposed. All coordinates were taken from the point on the skull where bregma meets the midline suture. The adjustable incisor bar was set at 3.3 mm below horizontal but may be adjusted. A 1-2 mm burr hole in the skull was made with a dental drill 0.5 mm anterior to bregma and 3.0 mm lateral from the midline (Paxinos, G. and Watson, C., The Rat Brain in Stereotaxic Coordinates. New York: Academic Press, 2nd ed., 1986). […] The cannula remained in place for one minute before infusion began. A total volume of 1 μl of NMDA (150 nanomoles per μl) solution was infused slowly (0.2 μl/2 min, total time of infusion was 10 min). The cannula remained in place for 5 minutes and then was slowly withdrawn (approx. 0.1 mm every 12 sec). NMDA was dissolved in 0.1M sodium phosphate buffer, pH 7.4. An equally osmolar solution of sodium chloride was used as a control in the contralateral striatum. The burr hole was sealed with bone wax and the scalp sutured closed.
The animals were sacrificed by decapitation seven days following surgery. The striatum was dissected over ice. […]
The experimental compounds were dissolved in 0.9% NaCl or appropriate vehicle and administered i.p. either pre- and/or post-excitotoxin infusion. […] Analysis of variance was calculated by the Newman-Keuls test with the PHARM/PCS computer program (Tallarida, R. J. and Murray, R. B., Manual of Pharmacologic Calculations with Computer Programs, Springer-Verlag, New York, 1987).

For assay [5], the system named is neurodegeneration in the rat striatum caused by intracerebral infusion of NMDA. Conditions: cited from earlier work.

As to `NS(=O)(=O)c1cccc2c1c([N+](=O)[O-])cc1nc(O)c(O)nc12` [NBQX, 2,3-Dihydroxy-6-nitro-7-sulfamoylbenzo(F)quinoxaline], the “protection against global ischemia” value in assay [1] is on record as “protects against global ischemia in the gerbil”.
As for `NC1CCN(O)C1=O` (stereo not drawn) [HA-966, 3-amino-1-hydroxypyrrolid-2-one], the neuroprotection result in assay [2] is reported as “significant neuroprotection”.
For `O=C(O)C1CN(CCCP(=O)(O)O)CCN1` (stereo not drawn) [CPP], the “protection of striatal neurons” value in assay [3] was “partial protection of striatal neurons”.
For `NCC(=O)Nn1ccc2ccccc21` [[N-(1H-Indol-1-yl)-2-amino]acetamide hydrochloride], in assay [4] (100 mg/kg, pretreatment 30 min), the “% Control Enzyme Activity ChAT” value turned out to be 68 % Control and the “% Control Enzyme Activity GAD” value is listed as 63 % Control.
For `C[C@]12N[C@H](Cc3ccccc31)c1ccccc12` [dizocilpine], in assay [4] (10 mg/kg, pretreatment 60 min), the “% Control Enzyme Activity ChAT” value worked out at 104 % Control and the “% Control Enzyme Activity GAD” value was 110 % Control. The “protection against neurodegeneration in the rat striatum” value in assay [5] is on record as “protected against neurodegeneration in the rat striatum”.
As for `O=C(O)c1cc(O)c2ccc(Cl)cc2n1` [7-Chlorokynurenate], the neuroprotection entry in assay [2] was “significant neuroprotection”.
